This note sets out measurements from patent US9458110B2, “Phenylpyrazole derivatives as potent ROCK1 and ROCK2 inhibitors” (BRISTOL-MYERS SQUIBB COMPANY, priority 2013, dated 2016).

One experiment addresses ROCK1 (Homo sapiens (Human), UniProt Q13464). Put plainly: ROCK assay (Caliper LABCHIP peptide phosphorylation), ROCK1.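 Note: Read-out is separation of phosphorylated from unphosphorylated peptide, with kinase activity inhibition computed at every concentration of a dose-response series.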 Format: biochemical. The settings on record: 5 μM ATP, 1.5 μM peptide substrate.
The target in another experiment is ROCK2 (Homo sapiens (Human), UniProt O75116). Put plainly: ROCK assay (Caliper LABCHIP peptide phosphorylation), ROCK2.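 Note: reaction stopped with EDTA, then phosphorylated and unphosphorylated peptide resolved by microfluidic electrophoresis, kinase inhibition computed at each compound concentration in dose-response series, DMSO under 2%.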 Format: biochemical. The settings on record: 5 μM ATP, 1.5 μM peptide substrate.
ROCK2, sequence (O75116 whole entry, species assumed): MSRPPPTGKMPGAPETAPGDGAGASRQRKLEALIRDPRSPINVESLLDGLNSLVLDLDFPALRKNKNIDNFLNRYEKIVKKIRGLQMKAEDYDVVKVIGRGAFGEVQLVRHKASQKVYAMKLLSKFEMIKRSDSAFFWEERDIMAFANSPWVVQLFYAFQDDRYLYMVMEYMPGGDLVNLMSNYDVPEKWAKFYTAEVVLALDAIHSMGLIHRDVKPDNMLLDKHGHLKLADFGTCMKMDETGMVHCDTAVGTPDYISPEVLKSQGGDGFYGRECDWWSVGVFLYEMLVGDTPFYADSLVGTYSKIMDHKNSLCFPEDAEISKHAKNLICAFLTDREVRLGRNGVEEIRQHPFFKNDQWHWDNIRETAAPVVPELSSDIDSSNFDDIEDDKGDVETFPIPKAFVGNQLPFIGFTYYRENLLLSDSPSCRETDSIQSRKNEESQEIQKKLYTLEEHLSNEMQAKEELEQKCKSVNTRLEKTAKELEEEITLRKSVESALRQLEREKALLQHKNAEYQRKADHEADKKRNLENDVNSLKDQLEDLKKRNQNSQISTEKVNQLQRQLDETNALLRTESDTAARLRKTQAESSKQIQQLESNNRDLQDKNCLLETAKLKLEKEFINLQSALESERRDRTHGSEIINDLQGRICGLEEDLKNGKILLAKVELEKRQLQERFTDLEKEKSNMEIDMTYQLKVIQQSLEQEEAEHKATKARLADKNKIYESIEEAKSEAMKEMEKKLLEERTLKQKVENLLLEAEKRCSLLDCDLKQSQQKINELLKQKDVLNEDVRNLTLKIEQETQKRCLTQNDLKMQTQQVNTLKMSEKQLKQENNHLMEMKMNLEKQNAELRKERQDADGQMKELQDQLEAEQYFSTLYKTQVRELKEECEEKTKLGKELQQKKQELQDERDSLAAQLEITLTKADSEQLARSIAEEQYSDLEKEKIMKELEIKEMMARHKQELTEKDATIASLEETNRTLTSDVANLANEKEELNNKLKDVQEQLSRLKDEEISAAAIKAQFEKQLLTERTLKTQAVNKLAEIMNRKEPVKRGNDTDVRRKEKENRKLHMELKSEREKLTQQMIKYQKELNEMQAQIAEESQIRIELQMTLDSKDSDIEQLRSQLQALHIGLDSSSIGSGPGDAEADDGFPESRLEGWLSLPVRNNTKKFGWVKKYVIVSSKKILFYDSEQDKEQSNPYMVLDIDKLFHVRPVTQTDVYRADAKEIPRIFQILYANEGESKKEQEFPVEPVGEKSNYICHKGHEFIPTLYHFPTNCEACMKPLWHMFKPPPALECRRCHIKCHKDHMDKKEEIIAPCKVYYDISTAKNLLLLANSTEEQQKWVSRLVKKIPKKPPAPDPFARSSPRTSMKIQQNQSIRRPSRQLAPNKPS

ROCK1, sequence (Q13464 whole entry, species assumed): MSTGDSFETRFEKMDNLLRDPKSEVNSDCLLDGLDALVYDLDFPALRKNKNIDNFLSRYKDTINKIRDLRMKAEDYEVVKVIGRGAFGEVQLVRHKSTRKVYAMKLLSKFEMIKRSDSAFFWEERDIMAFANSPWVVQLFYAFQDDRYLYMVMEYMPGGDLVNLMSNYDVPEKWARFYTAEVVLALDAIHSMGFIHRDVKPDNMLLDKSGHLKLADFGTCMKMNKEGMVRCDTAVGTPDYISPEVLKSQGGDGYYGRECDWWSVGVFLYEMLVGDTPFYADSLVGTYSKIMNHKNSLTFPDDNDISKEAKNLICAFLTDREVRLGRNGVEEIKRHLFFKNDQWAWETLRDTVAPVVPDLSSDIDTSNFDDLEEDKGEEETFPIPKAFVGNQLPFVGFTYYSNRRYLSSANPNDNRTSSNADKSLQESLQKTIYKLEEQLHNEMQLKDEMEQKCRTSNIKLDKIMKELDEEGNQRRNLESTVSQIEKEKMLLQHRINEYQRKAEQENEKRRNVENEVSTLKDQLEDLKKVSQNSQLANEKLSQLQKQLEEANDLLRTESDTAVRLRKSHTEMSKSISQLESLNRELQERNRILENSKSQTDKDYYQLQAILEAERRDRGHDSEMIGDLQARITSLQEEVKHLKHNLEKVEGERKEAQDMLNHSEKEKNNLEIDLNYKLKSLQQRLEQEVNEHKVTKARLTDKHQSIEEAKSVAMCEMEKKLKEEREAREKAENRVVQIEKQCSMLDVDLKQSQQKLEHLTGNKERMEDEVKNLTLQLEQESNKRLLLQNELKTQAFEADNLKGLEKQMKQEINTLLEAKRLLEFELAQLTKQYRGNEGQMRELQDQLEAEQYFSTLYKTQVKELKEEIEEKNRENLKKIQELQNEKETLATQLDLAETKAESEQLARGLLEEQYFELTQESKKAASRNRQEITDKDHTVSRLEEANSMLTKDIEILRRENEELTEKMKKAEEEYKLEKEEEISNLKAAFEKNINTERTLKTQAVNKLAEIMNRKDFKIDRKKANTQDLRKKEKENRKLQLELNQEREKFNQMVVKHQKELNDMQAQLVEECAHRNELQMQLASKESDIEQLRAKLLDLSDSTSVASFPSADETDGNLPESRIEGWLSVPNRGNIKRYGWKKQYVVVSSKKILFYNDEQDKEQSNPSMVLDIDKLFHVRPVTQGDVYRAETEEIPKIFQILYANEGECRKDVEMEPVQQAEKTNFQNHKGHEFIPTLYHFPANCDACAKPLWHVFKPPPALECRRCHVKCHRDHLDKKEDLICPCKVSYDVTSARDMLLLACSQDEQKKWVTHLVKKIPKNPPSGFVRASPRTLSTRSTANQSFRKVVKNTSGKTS

Regarding `COc1cc(C(=O)NCc2cccc(C(=O)Nc3nc4c(s3)CNCC4)c2)ccc1-c1cn[nH]c1` [Example 246, 3-methoxy-4-(1H-pyrazol-4-yl)-N-{[3-({4H,5H,6H, 7H-[1,3]thiazolo[5,4-c]pyridin-2-yl}carbamoyl)phenyl]methyl} benzamide], the IC50 worked out at 0.26 nM against ROCK1 and 0.23 nM on ROCK2.

Turning to `COc1cc(C(=O)NCc2cccc(C(=O)Nc3nc4c(s3)CN(C)CC4)c2)ccc1-c1cn[nH]c1` [Example 247, 3-methoxy-N-{[3-({5-methyl-4H, 5H,6H,7H-[1,3]thiazolo [5,4-c]pyridin-2-yl}carbamoyl)phenyl]methyl}-4-(1H-pyrazol-4-yl)benzamide], the IC50 on ROCK1 amounted to 0.39 nM; against ROCK2, 0.33 nM.

`COc1cc(C(=O)NCc2cccc(C(=O)NC3CCN(C)CC3)c2)ccc1-c1cn[nH]c1` [Example 248, 3-methoxy-N-({3-[(1-methylpiperidin-4-yl)carbamoyl]phenyl}methyl)-4-(1H-pyrazol-4-yl)benzamide]: the IC50 at ROCK1 came out at 0.43 nM; against ROCK2, 0.19 nM.

For `COc1cc(-c2cn[nH]c2)ccc1C(=O)NCc1cccc(C(=O)NC2CCN(C)CC2)c1` [Example 249, 2-methoxy-N-({3-[(1-methylpiperidin-4-yl)carbamoyl]phenyl}methyl)-4-(1H-pyrazol-4-yl)benzamide], the IC50 at ROCK1 is 1.24 nM; at ROCK2 it was 0.36 nM.

As for `COc1cc(C(=O)NCc2cccc(C(N)=O)c2)ccc1-c1cn[nH]c1` [Example 250, N-[(3-carbamoylphenyl)methyl]-3-methoxy-4-(1H-pyrazol-4-yl)benzamide], the IC50 on ROCK1 turned out to be 10 nM; against ROCK2, 0.72 nM.

Take `Cc1cc(C(=O)N[C@H](CC(=O)O)c2ccccc2)ccc1-c1cn[nH]c1` [Example 251, (3R)-3-{[3-Methyl-4-(1H-pyrazol-4-yl)phenyl]formamido}-3-phenylpropanoic acid]: the results for the 50% inhibitory concentration (IC50) against ROCK1 and against ROCK2 were 45.7 nM and 33.7 nM, respectively.

Take `Cc1cc(C(=O)N[C@H](CC(=O)NCC(C)(C)O)c2ccccc2)ccc1-c1cn[nH]c1` [Example 253, (3R)-N-(2-Hydroxy-2-methylpropyl)-3-{[3-methyl-4-(1H-pyrazol-4-yl)phenyl]formamido}-3-phenylpropanamide]: the figures for the IC50 against ROCK1 and against ROCK2 were 99 nM and 255 nM, respectively.

Take `CC(=O)NC[C@@H](NC(=O)c1ccc(-c2cn[nH]c2)c(C)c1)c1ccccc1` [Example 255, N-[(2S)-2-{[3-Methyl-4-(1H-pyrazol-4-yl)phenyl]formamido}-2-phenylethyl]acetamide]: the results for the IC50 at ROCK1 and on ROCK2 were 97.2 nM and 10.9 nM, respectively.

Take `Cc1cc(C(=O)N[C@H](CN)c2ccccc2)ccc1-c1cn[nH]c1` [Example 256, N-[(15)-2-amino-1-phenylethyl]-3-methyl-4-(1H-pyrazol-4-yl)benzamide]: the IC50 was 3.38 nM against ROCK1 and 0.72 nM on ROCK2.

Consider `CC(C)(O)COc1cc(C(=O)N[C@H](CN)c2ccccc2)ccc1-c1cn[nH]c1` [Example 257, N-[(15)-2-amino-1-phenylethyl]-3-(2-hydroxy-2-methylpropoxy)-4-(1H-pyrazol-4-yl)benzamide], for which the results for the IC50 at ROCK1 and at ROCK2 were 85.1 nM and 52.8 nM, respectively.

`NC[C@@H](NC(=O)c1ccc(-c2cn[nH]c2)c(OCCO)c1)c1ccccc1` [Example 258, N-[(15)-2-amino-1-phenylethyl]-3-(2-hydroxyethoxy)-4-(1H-pyrazol-4-yl)benzamide]: the figures for the IC50 against ROCK1 and on ROCK2 were 8.92 nM and 3.45 nM, respectively.

For the molecule `COc1cc(C(=O)N[C@H](CNC(C)=O)c2ccccc2)ccc1-c1cn[nH]c1` [Example 259, N-[(25)-2-{[3-methoxy-4-(1H-pyrazol-4-yl)phenyl] formamido}-2-phenylethyl] acetamide], the concentration for half-maximal inhibition (IC50) against ROCK1 came out at 23.6 nM; against ROCK2 it was 9.37 nM.

Turning to `COc1cc(C(=O)N[C@H](CNS(C)(=O)=O)c2ccccc2)ccc1-c1cn[nH]c1` [Example 260, N-[(1S)-2-methane-sulfonamido-1-phenylethyl]-3-methoxy-4-(1H-pyrazol-4-yl)benzamide], the IC50 was determined as 6.62 nM on ROCK1 and 1.9 nM against ROCK2.

For `COc1cc(C(=O)N[C@H](CNS(=O)(=O)C2CC2)c2ccccc2)ccc1-c1cn[nH]c1` [Example 261, N-[(1S)-2-cyclopropane-sulfonamido-1-phenylethyl]-3-methoxy-4-(1H-pyrazol-4-yl)benzamide], the IC50 against ROCK1 is 11.3 nM; against ROCK2 it was 2.89 nM.

For `CCS(=O)(=O)NC[C@@H](NC(=O)c1ccc(-c2cn[nH]c2)c(OC)c1)c1ccccc1` [Example 262, N-[(1S)-2-ethane-sulfonamido-1-phenylethyl]-3-methoxy-4-(1H-pyrazol-4-yl)benzamide], the IC50 was determined as 55.2 nM against ROCK1 and 36 nM against ROCK2.

Turning to `Cc1cc(C(=O)N[C@H](CN(C)C)c2ccccc2)ccc1-c1cn[nH]c1` [Example 263, N-[(1S)-2-(Dimethylamino)-1-phenylethyl]-3-methyl-4-(1H-pyrazol-4-yl)benzamide], the concentration for half-maximal inhibition (IC50) on ROCK1 is 6.45 nM; at ROCK2 it was 3.94 nM.

Regarding `CC[C@@H](NC(=O)c1ccc(-c2cn[nH]c2)c(OC)c1)c1c(F)cccc1F` [Example 264, N-[(1R)-1-(2,6-Difluorophenyl)propyl]-3-methoxy-4-(1H-pyrazol-4-yl)benzamide], the IC50 was found to be 77.3 nM at ROCK1 and 23.4 nM at ROCK2.

In the case of `CCNC[C@@H](NC(=O)c1ccc(-c2cn[nH]c2)c(OC)c1)c1c(F)cccc1F` [Example 265, N-[(1S)-1-(2,6-Difluorophenyl)-2-(ethylamino)ethyl]-3-methoxy-4-(1H-pyrazol-4-yl)benzamide], the IC50 on ROCK1 came to 2.26 nM; against ROCK2, 1.29 nM.

Regarding `COc1cc(C(=O)N[C@H](CNC2CC2)c2c(F)cccc2F)ccc1-c1cn[nH]c1` [Example 266, N-[(1S)-2-(Cyclopropylamino)-1-(2,6-difluorophenyl)ethyl]-3-methoxy-4-(1H-pyrazol-4-yl)benzamide], the IC50 turned out to be 4.62 nM against ROCK1 and 4.53 nM against ROCK2.

Take `COc1cc(C(=O)NCc2ccccc2C(C)C)ccc1-c1cn[nH]c1` [Example 267, 3-Methoxy-N-{[2-(propan-2-yl)phenyl]methyl}-4-(1H-pyrazol-4-yl)benzamide]: the IC50 against ROCK1 was found to be 204 nM; at ROCK2, 104 nM.

As to `C[C@@H](NC(=O)c1ccc(-c2cn[nH]c2)c(CO)c1)c1ccc(F)cc1` [Example 271, N-[(1R)-1-(4-Fluorophenyl)ethyl]-3-(hydroxymethyl)-4-(1H-pyrazol-4-yl)benzamide], the IC50 is 3450 nM against ROCK1 and 75 nM on ROCK2.

Take `C[C@@H](NC(=O)c1ccc(-c2cn[nH]c2)c(CO)c1)c1ccccc1` [Example 272, 3-(hydroxymethyl)-N-[(1R)-1-phenylethyl]-4-(1H-pyrazol-4-yl)benzamide]: the IC50 against ROCK1 came out at 284 nM; on ROCK2, 58.8 nM.

Turning to `CC(O)c1cc(C(=O)N[C@H](C)c2ccccc2)ccc1-c1cn[nH]c1` (stereo partly drawn) [Example 273, 3-(1-hydroxyethyl)-N-[(1R)-1-phenylethyl]-4-(1H-pyrazol-4-yl)benzamide], the IC50 was found to be 50 nM on ROCK1 and 7.73 nM on ROCK2.

As to `COC[C@@H](NC(=O)c1ccc(-c2cn[nH]c2)c(C(C)O)c1)c1ccccc1` (stereo partly drawn) [Example 274, 3-(1-hydroxyethyl)-N-[(1S)-2-methoxy-1-phenylethyl]-4-(1H-pyrazol-4-yl)benzamide], the IC50 was 287 nM against ROCK1 and 263 nM at ROCK2.
